Measurements published in patent publication US20130345058A1, “USE OF LIPOCHITO-OLIGOSACCHARIDE COMPOUNDS FOR SAFEGUARDING SEED SAFETY OF TREATED SEEDS” (priority 2011, published 2013).

Assays:
Type in all cases: in vivo
Wheat kernels = assay: Germination rate of wheat in combination with fungicides (greenhouse); settings: fungicides 25 g/dt in NMP, compound A1 0.1 mg/ha, soil, greenhouse 15° C., 70% humidity, 7 days, solvent control 69
Procedure: The test is performed under greenhouse conditions.
Wheat kernels were treated with different fungicides (25 g/dt in NMP) or a mixture of compound A1 (0.1 mg/ha in 1:1, acetonitril/water) with the fungicides. Kernels were planted in soil and grown in the greenhouse at 15° C., 70% humidity, 14 h day/light cycle for 7 days.
Controls are performed in the same conditions in the absence of active ingredients. Assessment consisted of counting seedlings per treatment.

maize = assay: Germination rate of maize in combination with insecticides (greenhouse); settings: clothianidin 1.25, imidacloprid 0.75 mg ai/corn, compound A1 1 mg/ha, greenhouse 10° C., 80% humidity, 9 days, solvent control 17
Procedure: (§1) The test was performed under greenhouse conditions. Kernels were treated with different insecticides (ready formulated) or a mixture of compound A1 (1 mg/ha in 1:1, acetonitril/water) with the insecticides. Kernels were planted in soil and grown in the greenhouse at 20° C., 80% humidity, 12 h day/light cycle for 4 days (wheat) and at 10° C., 80% humidity, 12 h day/light cycle for 9 days (maize). Controls are performed in the same conditions in the absence of active ingredients. Assessment consisted of counting seedlings per treatment.

wheat = assay: Germination rate of wheat in combination with insecticides (greenhouse); settings: thiacloprid 1.00 mg ai/corn, compound A1 1 mg/ha, greenhouse 20° C., 80% humidity, 4 days, solvent control 64
Procedure: as §1

Row | SMILES | % germination (Wheat kernels) | further results
1 | Cc1nn(C)c(F)c1C(=O)Nc1ccccc1C(C)CC(C)C (stereo not drawn) [Penflufen] | 47% | –
2 | CN/C(=N\[N+](=O)[O-])NCc1cnc(Cl)s1 [clothianidin] | – | germination % maize 9 d (maize): 8%
3 | N#Cc1c[nH]cc1-c1cccc2c1OC(F)(F)O2 [fludioxonil] | 23% | –
4 | CO/N=C(/C1=NOCCO1)c1ccccc1Oc1ncnc(Oc2ccccc2Cl)c1F [fluoxastrobin] | 4% | –
5 | CC(C)(C)C(O)(CCc1ccc(Cl)cc1)Cn1cncn1 (stereo not drawn) [tebuconazole] | 21% | –
6 | N#C/N=C1\SCCN1Cc1ccc(Cl)nc1 [thiacloprid] | – | germination % wheat 4 d (wheat): 9%
